Measurements taken from ChEMBL document CHEMBL5385941, “Synthesis and biological evaluation of hydantoin derivatives as potent antiplasmodial agents” (Bioorg Med Chem Lett, 2024).

Columns and labels:
[1] = Cytotoxicity against human MRC5 cells assessed as cell growth inhibition measured after 24 hrs by MTT assay; format: toxicity, cell-based
[2] = system: Plasmodium falciparum; test: Antiplasmodial activity against Plasmodium falciparum 3D7 trophozoites assessed as parasite growth inhibition; format: functional, organism-based
[3] = Cytotoxicity against human MRC5 cells assessed as cell viability at 3.125 to 100 uM measured after 24 hrs by MTT assay relative to control; format: toxicity, cell-based; settings: dose 3.125-100 µM, read-out: Activity

Compound | IC50 at 24 h [1] [µM] | IC50 [2] [µM] | viability at 24 h, up to 100 µM [3] [%]
CC(C)C(=O)N1C(=O)N[C@H](c2ccccc2)C1=O | > 100 | 27.5 | > 80
C[C@H]1NC(=O)NC1=O | > 100 | 916 | > 80
O=C1CNC(=O)N1C(=O)c1cc([N+](=O)[O-])cc([N+](=O)[O-])c1 | > 100 | 625 | > 80
O=C1CNC(=O)N1 [HYDANTOIN] | > 100 | 623 | > 80
O=C1CNC(=O)N1C(=O)Cc1ccccc1 | > 100 | 748 | > 80
O=C1NC(=O)[C@@H](c2ccccc2)N1 | > 100 | > 1000 | > 80
CC(=O)N1C(=O)CNC1=O | > 100 | 147 | > 80
Cc1ccc(S(=O)(=O)N2C(=O)CNC2=O)cc1 | > 100 | 0.00397 | > 80
CC(C)C(=O)N1C(=O)CNC1=O | > 100 | > 1000 | > 80
CSCC[C@H]1NC(=O)NC1=O | > 100 | > 1000 | > 80
